In PubChem BioAssay (NCI):
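The compound was tested at five concentrations on cells cultured in 96-well plates, with a 48-hour exposure period. GI50 = concentration required for 50% inhibition of growth. TGI: total growth inhibition.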

Experiments:
Assay in all cases: NCI-60 cell line screen, 48 h
786-0 renal = system: 786-0 renal
A498 renal = system: A498 renal
A549 NSCLC = system: A549 NSCLC
ACHN renal = system: ACHN renal
BT-549 breast = system: BT-549 breast
CCRF-CEM leukemia = system: CCRF-CEM leukemia
COLO 205 colon = system: COLO 205 colon
EKVX NSCLC = system: EKVX NSCLC
HCC-2998 colon = system: HCC-2998 colon
HCT-116 colon = system: HCT-116 colon
HCT-15 colon = system: HCT-15 colon
HL-60(TB) leukemia = system: HL-60(TB) leukemia
HOP-62 NSCLC = system: HOP-62 NSCLC
HOP-92 NSCLC = system: HOP-92 NSCLC
HS 578T breast = system: HS 578T breast
HT29 colon = system: HT29 colon
IGROV1 ovarian = system: IGROV1 ovarian
K-562 leukemia = system: K-562 leukemia
KM12 colon = system: KM12 colon
LOX IMVI melanoma = system: LOX IMVI melanoma
M14 melanoma = system: M14 melanoma
MALME-3M melanoma = system: MALME-3M melanoma
MCF7 breast = system: MCF7 breast
MDA-MB-231 breast = system: MDA-MB-231 breast
MDA-MB-435 = system: MDA-MB-435
MOLT-4 leukemia = system: MOLT-4 leukemia
NCI-H226 lung = system: NCI-H226 lung
NCI-H23 lung = system: NCI-H23 lung
NCI-H460 lung = system: NCI-H460 lung
NCI-H522 lung = system: NCI-H522 lung
NCI/ADR-RES ovarian = system: NCI/ADR-RES ovarian
OVCAR-3 ovarian = system: OVCAR-3 ovarian
OVCAR-4 ovarian = system: OVCAR-4 ovarian
OVCAR-5 ovarian = system: OVCAR-5 ovarian
OVCAR-8 ovarian = system: OVCAR-8 ovarian
PC-3 prostate = system: PC-3 prostate
RPMI-8226 leukemia = system: RPMI-8226 leukemia
RXF 393 renal = system: RXF 393 renal
SF-268 CNS = system: SF-268 CNS
SF-295 CNS = system: SF-295 CNS
SF-539 CNS = system: SF-539 CNS
SK-MEL-2 melanoma = system: SK-MEL-2 melanoma
SK-MEL-28 melanoma = system: SK-MEL-28 melanoma
SK-MEL-5 melanoma = system: SK-MEL-5 melanoma
SK-OV-3 ovarian = system: SK-OV-3 ovarian
SN12C renal = system: SN12C renal
SNB-19 CNS = system: SNB-19 CNS
SNB-75 CNS = system: SNB-75 CNS
SR leukemia = system: SR leukemia
SW-620 colon = system: SW-620 colon
T-47D breast = system: T-47D breast
TK-10 renal = system: TK-10 renal
U251 CNS = system: U251 CNS
UACC-257 melanoma = system: UACC-257 melanoma
UACC-62 melanoma = system: UACC-62 melanoma
UO-31 renal = system: UO-31 renal

For `CC(C)C[C@H]1C(=O)O[C@H](C(C)C)C(=O)N(C)[C@@H](C(C)C)C(=O)O[C@H](C(C)C)C(=O)N(C)[C@@H](C(C)C)C(=O)O[C@H](C(C)C)C(=O)N1C`, the GI50 (786-0 renal) was 3.71 µM, the TGI (786-0 renal) was over 10 µM and the GI50 (A498 renal) was 1.72 µM. The TGI (A498 renal) was 6.4 µM, the GI50 (A549 NSCLC) was 3.44 µM and the TGI (A549 NSCLC) was over 10 µM. For the same compound, the GI50 (ACHN renal) was 2.6 µM, the TGI (ACHN renal) was 8.83 µM and the GI50 (BT-549 breast) was 3.43 µM. It also gave a TGI (BT-549 breast) of over 10 µM, a GI50 (CCRF-CEM leukemia) of 3.5 µM and a TGI (CCRF-CEM leukemia) of over 10 µM. The GI50 (COLO 205 colon) was 1.64 µM, the TGI (COLO 205 colon) was 3.29 µM and the GI50 (EKVX NSCLC) was 3.1 µM. The TGI (EKVX NSCLC) was over 10 µM, the GI50 (HCC-2998 colon) was 3.9 µM and the TGI (HCC-2998 colon) was over 10 µM. For the same compound, the GI50 (HCT-116 colon) was 3.18 µM, the TGI (HCT-116 colon) was over 10 µM and the GI50 (HCT-15 colon) was 3.05 µM. It also gave a TGI (HCT-15 colon) of over 10 µM, a GI50 (HL-60(TB) leukemia) of 2.32 µM and a TGI (HL-60(TB) leukemia) of 5.23 µM. The GI50 (HOP-62 NSCLC) was 2.82 µM, the TGI (HOP-62 NSCLC) was over 10 µM and the GI50 (HOP-92 NSCLC) was 1.7 µM. It also gave a TGI (HOP-92 NSCLC) of 5.51 µM, a GI50 (HS 578T breast) of 4.1 µM and a TGI (HS 578T breast) of over 10 µM. The GI50 (HT29 colon) was 3.4 µM, the TGI (HT29 colon) was over 10 µM and the GI50 (IGROV1 ovarian) was 4.46 µM. For the same compound, the TGI (IGROV1 ovarian) was over 10 µM, the GI50 (K-562 leukemia) was 3.7 µM and the TGI (K-562 leukemia) was over 10 µM. For the same compound, the GI50 (KM12 colon) was 3.25 µM, the TGI (KM12 colon) was over 10 µM and the GI50 (LOX IMVI melanoma) was 3.19 µM. The TGI (LOX IMVI melanoma) was over 10 µM, the GI50 (M14 melanoma) was 3.65 µM and the TGI (M14 melanoma) was over 10 µM. The GI50 (MALME-3M melanoma) was 2.06 µM, the TGI (MALME-3M melanoma) was 8.67 µM and the GI50 (MCF7 breast) was 2.82 µM. The TGI (MCF7 breast) was over 10 µM, the GI50 (MDA-MB-231 breast) was 2.65 µM and the TGI (MDA-MB-231 breast) was 8.22 µM. It also gave a GI50 (MDA-MB-435) of 3.46 µM, a TGI (MDA-MB-435) of over 10 µM and a GI50 (MOLT-4 leukemia) of 3.27 µM. It also gave a TGI (MOLT-4 leukemia) of over 10 µM, a GI50 (NCI-H226 lung) of 4.01 µM and a TGI (NCI-H226 lung) of over 10 µM. The GI50 (NCI-H23 lung) was 3.19 µM, the TGI (NCI-H23 lung) was over 10 µM and the GI50 (NCI-H460 lung) was 3.14 µM. For the same compound, the TGI (NCI-H460 lung) was over 10 µM, the GI50 (NCI-H522 lung) was 2.61 µM and the TGI (NCI-H522 lung) was over 10 µM. For the same compound, the GI50 (NCI/ADR-RES ovarian) was 2.9 µM, the TGI (NCI/ADR-RES ovarian) was over 10 µM and the GI50 (OVCAR-3 ovarian) was 2.4 µM. For the same compound, the TGI (OVCAR-3 ovarian) was over 10 µM, the GI50 (OVCAR-4 ovarian) was 2.37 µM and the TGI (OVCAR-4 ovarian) was over 10 µM. The GI50 (OVCAR-5 ovarian) was 2.88 µM, the TGI (OVCAR-5 ovarian) was over 10 µM and the GI50 (OVCAR-8 ovarian) was 3.17 µM. For the same compound, the TGI (OVCAR-8 ovarian) was over 10 µM, the GI50 (PC-3 prostate) was 3.15 µM and the TGI (PC-3 prostate) was over 10 µM. It also gave a GI50 (RPMI-8226 leukemia) of 1.53 µM, a TGI (RPMI-8226 leukemia) of 5.56 µM and a GI50 (RXF 393 renal) of 3.33 µM. The TGI (RXF 393 renal) was over 10 µM, the GI50 (SF-268 CNS) was 3.71 µM and the TGI (SF-268 CNS) was over 10 µM. The GI50 (SF-295 CNS) was 2.72 µM, the TGI (SF-295 CNS) was over 10 µM and the GI50 (SF-539 CNS) was 3.2 µM. For the same compound, the TGI (SF-539 CNS) was over 10 µM, the GI50 (SK-MEL-2 melanoma) was 3.04 µM and the TGI (SK-MEL-2 melanoma) was over 10 µM. For the same compound, the GI50 (SK-MEL-28 melanoma) was 4.23 µM, the TGI (SK-MEL-28 melanoma) was over 10 µM and the GI50 (SK-MEL-5 melanoma) was 1.87 µM. It also gave a TGI (SK-MEL-5 melanoma) of 4.05 µM, a GI50 (SK-OV-3 ovarian) of 2.21 µM and a TGI (SK-OV-3 ovarian) of 6.05 µM. The GI50 (SN12C renal) was 3.09 µM, the TGI (SN12C renal) was over 10 µM and the GI50 (SNB-19 CNS) was 3.4 µM. The TGI (SNB-19 CNS) was over 10 µM, the GI50 (SNB-75 CNS) was 2.25 µM and the TGI (SNB-75 CNS) was over 10 µM. For the same compound, the GI50 (SR leukemia) was 3.65 µM, the TGI (SR leukemia) was over 10 µM and the GI50 (SW-620 colon) was 3.38 µM. The TGI (SW-620 colon) was over 10 µM, the GI50 (T-47D breast) was 2.65 µM and the TGI (T-47D breast) was 8.43 µM. The GI50 (TK-10 renal) was 3.27 µM, the TGI (TK-10 renal) was over 10 µM and the GI50 (U251 CNS) was 3.51 µM. The TGI (U251 CNS) was over 10 µM, the GI50 (UACC-257 melanoma) was 2.62 µM and the TGI (UACC-257 melanoma) was 8.49 µM. For the same compound, the GI50 (UACC-62 melanoma) was 3.47 µM, the TGI (UACC-62 melanoma) was over 10 µM and the GI50 (UO-31 renal) was 1.81 µM. For the same compound, the TGI (UO-31 renal) was 7.69 µM.
